Some test systems named below: RPMI-8226 leukemia; HT29 colon; MOLT-4 leukemia; HCT-15 colon; RXF 393 renal; HCC-2998 colon; OVCAR-4 ovarian.
Holding throughout (assay): NCI-60 cell line screen, 48 h

Molecules are shown by their SMILES.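 Interpolation was linear, between the two tested concentrations surrounding the appropriate level; five concentrations were tested over 48 hours in 96-well plates. TGI: concentration producing complete growth inhibition.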

Consider `CCCCC1(C(NC(=O)c2ccccc2Cl)c2ccncc2)C(=O)N(c2ccccc2)N(c2ccccc2)C1=O` (stereo not drawn), for which the TGI in the assay with RPMI-8226 leukemia is 84.1 µM; in the assay with HT29 colon it was more than 100 µM; in the assay with MOLT-4 leukemia it was 50.3 µM; with HCT-15 colon it was more than 100 µM; in the assay with RXF 393 renal it was more than 100 µM; with HCC-2998 colon, more than 100 µM.

`O=C1CCC(=O)N1Sc1ccccc1`: the TGI in the assay with RPMI-8226 leukemia, in the assay with MOLT-4 leukemia, in the assay with HCT-15 colon, in the assay on RXF 393 renal and in the assay on OVCAR-4 ovarian was more than 100 µM throughout.

On to `Cc1ccc2ccc(-c3ccccc3)c3c2c1C(=O)c1ccccc1C3=O`, for which the TGI in the assay with RPMI-8226 leukemia, in the assay on HT29 colon, with MOLT-4 leukemia, in the assay with RXF 393 renal and with HCC-2998 colon was more than 100 µM in each case.

Turning to `OCC(O)C(O)C(O)c1nn(-c2ccc(F)cc2)c2nc3cc(Cl)c(Cl)cc3nc12` (stereo not drawn), the TGI in the assay with RPMI-8226 leukemia was more than 100 µM; in the assay on HT29 colon, more than 100 µM; in the assay on MOLT-4 leukemia it was 48.4 µM; in the assay with HCT-15 colon, more than 100 µM; in the assay with RXF 393 renal it was 36.9 µM; with HCC-2998 colon it was more than 100 µM. Besides, in the assay on OVCAR-4 ovarian, the TGI was more than 100 µM.

For the molecule `COc1ccc(Br)c(C(=O)N2CCc3ccccc32)c1N`, the TGI with RPMI-8226 leukemia, in the assay on HT29 colon, with MOLT-4 leukemia, with HCT-15 colon, in the assay on RXF 393 renal and in the assay with HCC-2998 colon was more than 100 µM in each case. Moreover, the TGI in the assay on OVCAR-4 ovarian was more than 100 µM.

With `O=c1oc2c3ccc4ccccc4c3n(CCN3CCCCC3)c2c2ccccc12`, the TGI was more than 100 µM with RPMI-8226 leukemia; 53.4 µM with HT29 colon; more than 100 µM with MOLT-4 leukemia; more than 100 µM in the assay on HCT-15 colon; 29.3 µM in the assay on RXF 393 renal; more than 100 µM with HCC-2998 colon. In the assay with OVCAR-4 ovarian, this molecule displayed a TGI of more than 62 µM.

As to `COc1cccc(/C=N\NC(=O)C(C)SC(C)C(=O)N/N=C/c2cccc(OC)c2)c1` (stereo not drawn), the TGI in the assay on RPMI-8226 leukemia was more than 82.3 µM; in the assay with HT29 colon, more than 100 µM; with MOLT-4 leukemia it was more than 100 µM; in the assay with HCT-15 colon, more than 100 µM; in the assay on RXF 393 renal it was 28.6 µM; with HCC-2998 colon it was 47.5 µM. In the assay on OVCAR-4 ovarian, this molecule had a TGI of 31.9 µM.

Take `Cc1ccc(S(=O)C(C)C(Cl)c2ccccc2)cc1` (stereo not drawn): the TGI in the assay on RPMI-8226 leukemia, in the assay on HT29 colon, in the assay with MOLT-4 leukemia, in the assay with HCT-15 colon, in the assay with RXF 393 renal and with HCC-2998 colon was more than 100 µM each time. The TGI in the assay with OVCAR-4 ovarian was more than 100 µM.

In the case of `C1=CC2CCC1CN2CCC1CNc2ccccc21` (stereo not drawn), the TGI in the assay with RPMI-8226 leukemia, with HT29 colon, in the assay on MOLT-4 leukemia, with RXF 393 renal and in the assay with HCC-2998 colon was more than 100 µM in each case.

For the molecule `O=C(/C=C/c1ccccc1O)c1ccccc1Cl`, the TGI in the assay on HT29 colon is more than 100 µM; in the assay with MOLT-4 leukemia, 84.1 µM; with HCT-15 colon it was more than 100 µM; with RXF 393 renal it was more than 100 µM; with HCC-2998 colon, more than 100 µM; in the assay with OVCAR-4 ovarian it was more than 100 µM.

With `CC1(C)OC(=O)C(=C2CCC(C(=O)Nc3cccc(C(F)(F)F)c3)N2)C(=O)O1` (stereo not drawn), the TGI in the assay with RPMI-8226 leukemia, in the assay with HT29 colon, in the assay with MOLT-4 leukemia, with HCT-15 colon, in the assay on RXF 393 renal and in the assay with HCC-2998 colon was more than 100 µM throughout. In the assay on OVCAR-4 ovarian, this molecule showed a TGI of more than 100 µM.

Take `Cc1cc(C)nc(NS(=O)(=O)c2ccc(Nc3c4ccccc4nc4c(C(=O)NCCN(C)C)cccc34)cc2)n1`: the TGI in the assay with HT29 colon is 14.3 µM; in the assay with MOLT-4 leukemia, 1.61 µM; with HCT-15 colon it was 19.3 µM; in the assay on RXF 393 renal, 20.2 µM; in the assay on OVCAR-4 ovarian, 11.9 µM.

As to `COc1cc(OC)c2c(=O)c3cccc([N+](=O)[O-])c3n(C)c2c1`, the TGI with RPMI-8226 leukemia, in the assay with HT29 colon, in the assay with MOLT-4 leukemia, in the assay on HCT-15 colon, with RXF 393 renal and in the assay on OVCAR-4 ovarian was more than 100 µM each time.

Consider `N#CCc1cccc(CC#N)c1Br`, for which the TGI in the assay with RPMI-8226 leukemia was more than 100 µM; with HT29 colon it was more than 100 µM; in the assay on MOLT-4 leukemia, more than 100 µM; in the assay with HCT-15 colon, more than 100 µM; in the assay with RXF 393 renal, 93.7 µM; in the assay with OVCAR-4 ovarian it was more than 100 µM.

For the molecule `O=C(O)CSc1n[nH]c(-c2ccco2)n1`, the TGI in the assay on RPMI-8226 leukemia, in the assay on HT29 colon, in the assay on MOLT-4 leukemia, in the assay on RXF 393 renal, in the assay with HCC-2998 colon and with OVCAR-4 ovarian was more than 100 µM in each case.

With `O=C1OC(=O)C([Se]c2ccccc2)=C1[Se]c1ccccc1`, the TGI with RPMI-8226 leukemia, in the assay on HT29 colon, in the assay with MOLT-4 leukemia, with HCT-15 colon, with RXF 393 renal and in the assay with OVCAR-4 ovarian was more than 100 µM in each case.

The values above are taken from PubChem BioAssay (NCI).
